The record followed here is PubChem BioAssay AID435019 (Southern Research Specialized Biocontainment Screening …, 2010).

In the assay the test system is mammalian cell viability, cytotoxicity counter-screen. Description: mammalian cell cytotoxicity, dose response, cytotoxicity control for M. tuberculosis inhibitor project (AID 435019).

As usually defined, the CC50 is the concentration giving 50% cytotoxicity. For the compound `CN(C)c1ccnc2c[cH-]cc12.[Fe].c1ccc(-[c-]2[c-](-c3ccccc3)[c-](-c3ccccc3)[c-](-c3ccccc3)[c-]2-c2ccccc2)cc1` (configuration not stated), the half-maximal cytotoxic concentration (CC50) is 11.8 µM.

For the compound `C[CH2][Hg][S]c1ccccc1C(=O)O`, the CC50 was 3.56 µM.
